Measured values reported in article PMC7261837, “Circumdatin D Exerts Neuroprotective Effects by Attenuating LPS-Induced Pro-Inflammatory Responses and Downregulating Acetylcholinesterase Activity In Vitro and In Vivo” (Frontiers in Pharmacology, 2020).

How the values were obtained:
Recombinant AChE = Recombinant AChE (Homo sapiens, UniProt P22303); experiment: biochemical; conditions: SPR, 25°C, 1:1 Langmuir binding model; read-out: AChE Affinity Kd
Protocol: The experiments for surface plasmon resonance (SPR) interaction were conducted at 25°C using the Biacore T200 system (GE Healthcare, Sweden). Recombinant AChE diluted in sodium acetate buffer (100 mM, pH 4.5) was used as the stock for the following experiments. CM5 sensor chips were coupled with AChE using an amine coupling kit (GE Healthcare, Buckinghamshire, UK). Thereafter, different concentrations of compounds were injected as analytes using PBS-P (10mM phosphate buffer with 2.7 mM KCl and 137 mM NaCl, 0.05% polysorbate 20, […]) as running buffer. For binding assays, the analytes were introduced with a 60 s contact time followed by a 60 s dissociation time at a flow rate of 45 μl/min. The surface was regenerated with 10 mM glycine (pH 3.0) for 30 s. The affinity constants were calculated using the 1:1 Langmuir binding model of Biacore evaluation software (T200 Version 1.0).

NF-κB = NF-κB luciferase reporter assay; assay type: cell-based; conditions: Homo sapiens; SW480 cells stably transfected with NF-κB luciferase reporter gene, induced by LPS; mean ± SD (n = 3); read-out: NF-κB Activation IC50
Protocol: SW480-NF-κB cells were seeded at a density of 5 × 10^4 cells/well in 24-well plates and incubated with circumdatins with or without LPS stimulation for 6 h. The κB-dependent luciferase reporter activity in cell extracts was monitored using an automated microplate reader.

[1] = biological target: T1, acetylcholinesterase (AChE) from Electrophorus electrics (Electric eel) (Electrophorus electricus, UniProt O42275); experiment: biochemical; conditions: modified Ellman's colorimetric method; mean ± SD (n = 3)
T1 construct: purchased Sigma Chemical Co. (St Louis, MO, USA)
T1 sequence (O42275 24-633): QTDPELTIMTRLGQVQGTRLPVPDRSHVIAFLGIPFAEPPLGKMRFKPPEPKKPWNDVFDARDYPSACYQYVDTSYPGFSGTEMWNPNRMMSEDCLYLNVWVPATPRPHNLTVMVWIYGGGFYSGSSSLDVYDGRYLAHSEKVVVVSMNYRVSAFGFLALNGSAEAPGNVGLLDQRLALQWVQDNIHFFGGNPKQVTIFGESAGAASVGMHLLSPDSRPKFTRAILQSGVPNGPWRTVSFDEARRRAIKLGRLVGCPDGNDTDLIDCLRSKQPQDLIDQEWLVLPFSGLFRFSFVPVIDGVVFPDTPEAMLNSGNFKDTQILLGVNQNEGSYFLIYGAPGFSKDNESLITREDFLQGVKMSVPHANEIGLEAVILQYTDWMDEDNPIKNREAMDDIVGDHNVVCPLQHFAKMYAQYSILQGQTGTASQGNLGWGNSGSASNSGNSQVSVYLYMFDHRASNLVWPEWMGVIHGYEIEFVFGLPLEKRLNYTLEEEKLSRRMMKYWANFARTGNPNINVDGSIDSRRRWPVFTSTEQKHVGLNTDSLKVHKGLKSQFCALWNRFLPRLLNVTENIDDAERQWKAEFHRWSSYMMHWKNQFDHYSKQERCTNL
Source text: Dulbecco's modified Eagle medium (DMEM), α-minimum essential medium (α-MEM) and fetal bovine serum (FBS) were provided by Hyclone (Waltham, USA). 3-(4,5-Dimethylthiazol-2-yl)-2,5-diphenyltetrazolium bromide (MTT), acetylcholinesterase (AChE) from Electrophorus electrics (Electric eel) and lipopolysaccharide (LPS) (Escherichia coli 055: B5) were provided by Sigma Chemical Co. (St Louis, MO, USA). Enzyme-linked immunosorbent assay (ELISA) kits for IL-1β and TNF-α and Griess reagent for nitric oxide (NO) assay kit were provided by ExCell Bio (Shanghai, China). Antibodies for TLR4, MyD88, JNK, p-JNK, p38, p-p38, ERK, p-ERK, IκB, p-IκB, IKK, p-IKK, NF-κB, STAT3、p-STAT3、Jak2, p-Jak2, GAPDH and Histone H3 were purchased from Cell Signaling Technology (Danvers, USA). Antibodies for iNOS and COX-2 were provided by Abcam (Cambridge, UK).
AChE activities in vitro and in vivo were assessed by a modified Ellman's spectrophotometric method ([Szwajgier, 2015]). Briefly, AChE (80 μl) in phosphate buffer (Na2HPO4/NaH2PO4, pH 8.0) and compound (20 μl) diluted in same phosphate buffer were added to 96 microplates as the reaction mixture. The mixture was incubated at 37°C for 30 min before addition of 10 μl 5,5′-dithiobis (2-nitrobenzoic acid) (DTNB) (3 mM) and 10 μl acetylthiocholine iodide (ATCI) (15 mM). After incubation for 20 min, the absorbance was detected at 412 nm using a microplate spectrophotometer (Thermo Scientifics, USA). […] The inhibitory rate of AChE was calculated, and the IC50 values were calculated by GraphPad Prism® 5.0 software (GraphPad Inc., San Diego, USA).

BV-2 cells = experiment: LPS-induced NO production in BV-2 cells (Griess method); assay type: cell-based, murine; conditions: 1 μg/ml LPS, 24 h
Protocol: BV-2 cells (murine microglia cell line) was obtained from Peking Union Medical College, Cell Bank (Beijing, China) and maintained in DMEM containing 10% FBS. Cells were grown in a humidified atmosphere of 5% CO2 incubator at 37°C.
BV2 cells were seeded and incubated overnight, and followed by treatment with different doses of circumdatins for indicated period with or without LPS (1 μg/ml) stimulation. The cells without circumdatins and LPS treatment were used as the control group.
The NO levels in culture media was determined using a Griess method. Cells were treated with different concentrations of circumdatins in the presence or absence of LPS for 24 h. After that, the supernatant fraction of the culture media was collected and mixed with the same volume of Griess reagent (1% sulfanilamide/0.1% naphthyl ethylene diamine dihydrochloride/2% H3PO4). Then, the absorbance was measured at 540 nm using a microplate spectrophotometer (Thermo Scientifics, USA). The concentration of nitrite was calculated from a calibration curve obtained from standards sodium nitrite solutions.

Sequence of Recombinant AChE (P22303 32-614): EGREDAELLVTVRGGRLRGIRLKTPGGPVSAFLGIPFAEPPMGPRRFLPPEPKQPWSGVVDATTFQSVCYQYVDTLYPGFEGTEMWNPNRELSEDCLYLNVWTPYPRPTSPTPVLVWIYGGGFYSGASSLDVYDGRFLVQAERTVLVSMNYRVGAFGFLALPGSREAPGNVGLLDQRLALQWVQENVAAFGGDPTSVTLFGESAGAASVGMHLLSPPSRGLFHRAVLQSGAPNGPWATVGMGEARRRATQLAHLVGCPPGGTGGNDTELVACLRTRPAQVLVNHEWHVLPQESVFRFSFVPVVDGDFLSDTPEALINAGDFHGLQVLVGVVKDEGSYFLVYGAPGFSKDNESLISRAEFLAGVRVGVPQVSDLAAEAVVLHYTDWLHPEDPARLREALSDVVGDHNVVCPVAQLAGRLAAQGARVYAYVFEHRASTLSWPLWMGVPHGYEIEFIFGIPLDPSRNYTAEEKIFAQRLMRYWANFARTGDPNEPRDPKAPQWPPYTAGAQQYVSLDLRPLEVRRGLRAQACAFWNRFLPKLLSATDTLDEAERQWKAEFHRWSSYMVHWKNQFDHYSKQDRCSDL

## C[C@@H]1NC(=O)c2cc(O)c(O)cc2-n2c1nc1ccccc1c2=O [2-hydroxycircumdatin C]
Recombinant AChE
  Kd: 3.6 µM
NF-κB
  IC50: 16.5 ± 1.9 µM
[1]
  IC50: 5.6 ± 0.9 µM

## C[C@@H]1NC(=O)c2cc(O)ccc2-n2c1nc1ccccc1c2=O [circumdatin C]
Recombinant AChE
  Kd: 85 µM
NF-κB
  IC50: 15.6 ± 2.3 µM
BV-2 cells
  LPS-induced NO production: decreased NO production only in high dose

## C[C@@H]1NC(=O)c2ccccc2-n2c1nc1ccccc1c2=O [circumdatin F]
Recombinant AChE
  Kd: 240 µM
NF-κB
  IC50: 11.8 ± 0.9 µM
[1]
  IC50: 10 ± 1.9 µM
BV-2 cells
  LPS-induced NO production: decreased NO production only in high dose

## C[C@@H]1NC(=O)c2ccccc2-n2c1nc1c(O)cccc1c2=O [circumdatin G]
Recombinant AChE
  Kd: 120 µM
NF-κB
  IC50: 18.9 ± 2.1 µM
[1]
  IC50: 15.8 ± 2 µM
BV-2 cells
  LPS-induced NO production: significant reduction of NO levels

## COc1ccc2nc3n(c(=O)c2c1)-c1ccccc1C(=O)N1CCC[C@@H]31 [circumdatin H]
Recombinant AChE
  Kd: 95 µM
NF-κB
  IC50: 33.3 ± 1.4 µM
[1]
  IC50: 98 ± 5.7 µM
BV-2 cells
  LPS-induced NO production: decreased NO production only in high dose

## C[C@@H]1NC(=O)c2cc(O)ccc2-n2c1nc1c(O)cccc1c2=O [circumdatin I]
Recombinant AChE
  Kd: 65 µM
NF-κB
  IC50: 18.6 ± 1.9 µM
[1]
  IC50: 11.6 ± 2.6 µM
BV-2 cells
  LPS-induced NO production: decreased NO production only in high dose
